From patent publication EP3822283A1, “SEMAPHORIN 3A NEURODEGENERATION MODULATORS, COMPOSITIONS AND USES THEREOF” (Consejo Superior de Investigaciones Científicas (CSIC), priority 2019, dated 2021)

Molecular target: T1, Sema3A (Rattus norvegicus, UniProt Q63548)
T1 sequence (Q63548 21-772): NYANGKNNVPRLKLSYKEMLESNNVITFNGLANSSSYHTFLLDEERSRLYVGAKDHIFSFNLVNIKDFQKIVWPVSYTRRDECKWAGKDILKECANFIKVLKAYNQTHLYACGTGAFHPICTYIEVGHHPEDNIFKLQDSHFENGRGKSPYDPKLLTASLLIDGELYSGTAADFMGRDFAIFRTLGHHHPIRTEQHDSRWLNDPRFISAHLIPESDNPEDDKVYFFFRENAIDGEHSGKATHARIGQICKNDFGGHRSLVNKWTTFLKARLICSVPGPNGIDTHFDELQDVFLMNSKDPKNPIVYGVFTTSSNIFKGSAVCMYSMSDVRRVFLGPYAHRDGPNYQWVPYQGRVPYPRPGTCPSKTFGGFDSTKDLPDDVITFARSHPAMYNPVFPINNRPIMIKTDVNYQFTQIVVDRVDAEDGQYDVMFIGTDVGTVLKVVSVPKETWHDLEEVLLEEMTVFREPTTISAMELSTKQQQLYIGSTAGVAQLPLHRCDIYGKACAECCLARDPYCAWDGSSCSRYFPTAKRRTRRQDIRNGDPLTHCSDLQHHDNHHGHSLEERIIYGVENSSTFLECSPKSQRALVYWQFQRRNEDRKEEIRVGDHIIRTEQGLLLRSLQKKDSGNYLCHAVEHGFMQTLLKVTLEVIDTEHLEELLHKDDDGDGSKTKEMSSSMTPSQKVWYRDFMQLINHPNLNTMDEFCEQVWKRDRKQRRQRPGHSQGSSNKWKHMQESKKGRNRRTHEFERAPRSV
Protocol: To evaluate the potential of the Compound 2 to inhibit Sema3a in a relevant small animal model, a rat axotomy study was carried out. […] Adult male Sprague-Dawley rats (12-15 weeks old, 300 g) were anesthetized (50 mg/kg xylazine and 35 mg/kg ketamine), and their left optic nerves were exposed by lateral canthotomy. Briefly, the conjuctivae were incised lateral to the cornea, and the retractor bulbus muscles were separated. Through a small opening in the meninges (50-100 µm), the nerve fibers were completely transected at a distance of 2-3 mm from the globe. The procedure was performed without damage to the nerve vasculature and optic nerve blood supply and with minimal damage to the meninges by the use of a specially designed glass dissector with a 200- µm tip and a smooth blunt edge (Solomon et al., 1996, Journal of Neuroscience Methods, 70, 21-5). […] Clinical examination of the eyes was performed using a slit lamp, and the eyes were monitored for any signs of hyperemia, edema, dis- charge, fibrin, and other inflammatory parameters. […] Two independent and blinded researchers counted the number of labeled RGC in flat-mounted retinas by fluorescent microscopy. For each retina, 20 representative microscopic fields were evaluated: 10 fields from the peripheral area and 10 fields from the central area (each field covering an area of 0.069 mm2). […]

## CCN(CC)CCN(CC(=O)N(CCN1CCCC1)CC(=O)N(CCC1CCCN1C)CC(N)=O)C(=O)OCc1ccccc1 (centres unmarked) [Compound 2, 2-[2-(1-methylpyrrolidin-2-yl)ethyl]-5-(2-pyrrolidin-1-yl)ethyl-8-benzyloxycarbonyl-11,11-diethyl-3,6-dioxo-2,5,8,11-tetraazaundecancarboxamide]
Adult male Sprague-Dawley rats, optic nerve axotomy, single intravitreal dose 0.025 µg/eye immediately after surgery, 14 days after optic nerve surgery, 2 days after Di-Asp retrograde staining of RGC
  RGC survival compared to healthy rats: 30%
Rat optic nerve axotomy, single intravitreal dose 0.025 µg/eye in 4 µl PBS, labeled RGC counted in flat-mounted retinas
  prevention of RGC loss (neuroprotection): neuroprotective
